According to the supplement of paper PMC5908809:

Assays:
[1] = test system: NKL (IL-2 2.5 ng/mL); test: drug sensitivity score (DSS) (DSS units); higher = more sensitive; extreme values may be limits of the assay; details: 72 h
[2] = test system: KAI3 (IL-2 2.5 ng/mL); test: as above; details: 72 h
[3] = test system: NK-92 (IL-2 2.5 ng/mL); test: as above; details: 72 h
[4] = test system: normal primary NK cells, pool 2 (3 donors) (IL-2 2.5 ng/mL); test: as above; details: 72 h
[5] = test system: DERL-7 (IL-2 2.5 ng/mL); test: as above; details: 72 h
[6] = test system: NK-YS (IL-2 2.5 ng/mL); test: as above; details: 72 h
[7] = test system: normal primary NK cells, pool 1 (3 donors), resting (IL-2 0 ng/mL); test: as above; details: 72 h
[8] = test system: KHYG-1 (IL-2 2.5 ng/mL); test: as above; details: 72 h
[9] = test system: normal primary NK cells, pool 3 (3 donors) (IL-2 2.5 ng/mL); test: as above; details: 72 h
[10] = test system: YT (IL-2 2.5 ng/mL); test: as above; details: 72 h
[11] = test system: normal primary NK cells, pool 1 (3 donors) (IL-2 2.5 ng/mL); test: as above; details: 72 h
[12] = test system: SNK-6 (IL-2 2.5 ng/mL); test: as above; details: 72 h
[13] = test system: IMC-1 (IL-2 20 ng/mL); test: as above; details: 72 h
[14] = test system: NKL (IL-2 2.5 ng/mL); test: percent inhibition of viability; higher = more inhibition; details: 72 h
[15] = test system: KAI3 (IL-2 2.5 ng/mL); test: as above; details: 72 h
[16] = test system: NK-92 (IL-2 2.5 ng/mL); test: as above; details: 72 h
[17] = test system: normal primary NK cells, pool 2 (3 donors) (IL-2 2.5 ng/mL); test: as above; details: 72 h
[18] = test system: DERL-7 (IL-2 2.5 ng/mL); test: as above; details: 72 h
[19] = test system: NK-YS (IL-2 2.5 ng/mL); test: as above; details: 72 h
[20] = test system: normal primary NK cells, pool 1 (3 donors), resting (IL-2 0 ng/mL); test: as above; details: 72 h
[21] = test system: KHYG-1 (IL-2 2.5 ng/mL); test: as above; details: 72 h
[22] = test system: normal primary NK cells, pool 3 (3 donors) (IL-2 2.5 ng/mL); test: as above; details: 72 h
[23] = test system: YT (IL-2 2.5 ng/mL); test: as above; details: 72 h
[24] = test system: normal primary NK cells, pool 1 (3 donors) (IL-2 2.5 ng/mL); test: as above; details: 72 h
[25] = test system: SNK-6 (IL-2 2.5 ng/mL); test: as above; details: 72 h
[26] = test system: IMC-1 (IL-2 20 ng/mL); test: as above; details: 72 h
[27] = test system: normal NK cells expanded with K562-aAPC; test: drug sensitivity score (DSS) (DSS units); higher = more sensitive; extreme values may be limits of the assay; details: 72 h; IL-2 2.5 ng/mL
Procedure: (§1)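 Drug sensitivity and resistance testing on K562-aAPC-expanded normal NK cells: 5 concentrations (10-fold steps over a 10,000-fold range), 72 h at 37 °C, viability by CellTiter-Glo normalised to DMSO and benzethonium chloride controls; DSS from the fitted curve.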

[28] = test system: normal NK cells expanded with K562-aAPC; test: percent inhibition of viability; higher = more inhibition; details: 72 h, IL-2 2.5 ng/mL
Procedure: as §1

CCN1CCN(Cc2ccc(Nc3ncc(F)c(-c4cc(F)c5nc(C)n(C(C)C)c5c4)n3)nc2)CC1 [Abemaciclib] (max concentration tested 2500 nM)
Details | drug sensitivity score
[1] | 1.33
[2] | 0.01
[3] | 3.33
[4] | 2.85
[5] | 10.8
[6] | 8.19
[7] | 0.89
[8] | 9.69
[9] | 0
[10] | 0
[11] | 2.05
[12] | 0.14
[13] | 4.41
[27] | 3.89

percent inhibition of viability [%]
Details | 0.25 nM | 2.5 nM | 25 nM | 250 nM | 2500 nM
[14] | -11.9 | -8.91 | -19.3 | -11.8 | 38
[15] | -4.55 | -3.34 | -6.9 | -4.76 | 11.8
[16] | -9.23 | 0.87 | -2.31 | 7.25 | 42
[17] | -7.88 | -7.14 | 0.77 | 1.36 | 50.7
[18] | -4.64 | -2.09 | 8.58 | 51.3 | 73.9
[19] | -3.7 | -3.12 | 0.09 | 18 | 95
[20] | -12.7 | -5.25 | -10.3 | -47.3 | -83.7
[21] | -1.33 | -1.51 | -0.04 | 42.8 | 79.8
[22] | -10.9 | -4.53 | -8.73 | -3.71 | 11.1
[23] | -0.11 | 3.29 | -1.68 | 5.51 | 7.94
[24] | -4.8 | -6.62 | -2.33 | 9.08 | 24.4
[25] | 22.8 | 13.2 | 4.72 | 15.4 | 29.8
[26] | 1.3 | -5.47 | -5.79 | -18.8 | 97.5
[28] | 2.02 | -3.3 | 4.81 | 17.7 | 41.3
